Measured values from patent US8012970B2, “Derivatives of 1-{[1,5-bis(4-chlorophenyl)-2-methyl-1H-pyrrol-3-yl]methyl}-4-methylpiperazine, synthesis process and uses thereof” (priority 2005, dated 2011).
≈ marks a conversion by molar mass, not a printed value. Like-named read-outs stand apart in the source and are kept apart here.

Assays:
Type in all cases: cell-based
[1] = test system: M. avium 103317; test: Antimycobacterial activity toward atypical mycobacteria, MIC in broth
[2] = test system: M. marinum 6423; test: as above
[3] = test system: M. smegmatis 103599; test: as above
[4] = test system: M. tuberculosis 103471; test: Antimycobacterial activity, MIC in Middlebrook 7H9 broth (NCCLS procedure); settings: for MIC: Mycobacterium tuberculosis, 103471, read-out: M. tuberculosis 103471 MIC (μg/mL); for M. tuberculosis 103471 MIC: extracellular M. tuberculosis 103471
[5] = test system: VERO cells; test: Cytotoxicity on Vero cell monolayers (MNTD50); settings: maximum 50% non-toxic dose, 5 days
Procedure: The cytotoxicity was evaluated on Vero cell monolayers (ICN-Flow). They were inoculated in 6-well plates each containing 9×10^4 cells and incubated in DMEM with 5% FCS for 24 h at 37° C. in a 5% CO2 incubator. After 24 h of culture, the medium was changed and a new medium containing decreasing doses of the substances under study was added.
After 5 days, the cells were trypsinized and counted in a Neubauer chamber under a light microscope. All the tests were done in triplicate. The maximum 50% non-toxic dose (MNTD50) was defined as the drug concentration that decreased cell multiplication less than 50% with respect to the control.

[6] = test system: intracellular M. tuberculosis; test: Inhibitory activity on intramacrophagic mycobacteria in U937 cells differentiated into macrophages; settings: Mycobacterium tuberculosis, read-out: MIC (μg/mL) Inhibition of intramacrophagic mycobacteria
Procedure: Inhibitory Activity of 6e and 7c on Intramacrophagic Mycobacteria.
The bactericidal activity of such compounds on intracellular mycobacteria was studied on U937 cells (INC-FLOW), a human hystiocytic cell line. Cells were differentiated into macrophages with 20 ng/mL of phorbol myristate acetate (PMA, Sigma) and grown in RPMI 1640 medium with 10% fetal calf serum.

[7] = Mycobacterium avium, 103317; read-out: MIC (μg/mL) M. avium 103317
[8] = Mycobacterium marinum, 6423; read-out: MIC (μg/mL) M. marinum 6423
[9] = Mycolicibacterium smegmatis, 103599; read-out: MIC (μg/mL) M. smegmatis 103599

Structure (SMILES) | MIC [1, 7] [µg/mL] | MIC [2, 8] [µg/mL] | MIC [3, 9] [µg/mL] | MIC [4] [µg/mL] | MNTD50 (μg/mL) VERO cells [5] [µg/mL] | MIC (μg/mL) M. avium 103317 [1] [µg/mL] | MIC (μg/mL) M. marinum 6423 [2] [µg/mL] | MIC (μg/mL) M. smegmatis 103599 [3] [µg/mL] | M. tuberculosis 103471 MIC [4] [µg/mL] | MIC [6] [µg/mL] | MIC ([1]; Mycobacterium avium, 103317, read-out: MIC (μg/mL) M. avium 103317) [µg/mL] | MIC ([2]; Mycobacterium marinum, 6423, read-out: MIC (μg/mL) M. marinum 6423) [µg/mL] | MIC ([3]; Mycolicibacterium smegmatis, 103599, read-out: MIC (μg/mL) M. smegmatis 103599) [µg/mL]
Cc1c(CN2CCN(C)CC2)cc(-c2ccc(Cl)cc2)n1-c1ccc(Cl)cc1 [BM212, 1-{[1,5-bis(4-chlorophenyl)-2-methyl-1H-pyrrol-3-yl]methyl}-4-methylpiperazine] | 0.4 (≈ 0.965 µM) | 100 (≈ 241 µM) | 25 (≈ 60.3 µM) | 0.7 (≈ 1.69 µM) | 4 |  |  |  |  |  |  |  | 
Cc1c(CN2CCSCC2)cc(-c2ccccc2Cl)n1-c1ccc(F)cc1 [Compound 6a] |  |  |  |  | 4 | 16 (≈ 39.9 µM) | >16 | >16 | 4 |  |  |  | 
Cc1c(CN2CCN(C)CC2)cc(-c2ccccc2Cl)n1-c1ccc(F)cc1 [Compound 6b] |  |  |  |  | 2 | 16 (≈ 40.2 µM) | >16 | >16 | 8 |  |  |  | 
Cc1c(CN2CCSCC2)cc(-c2ccccc2F)n1-c1ccc(F)cc1 [Compound 6c] |  |  |  |  | 16 | 16 (≈ 41.6 µM) | >16 | >16 | 0.5 |  |  |  | 
Cc1c(CN2CCN(C)CC2)cc(-c2ccccc2F)n1-c1ccc(F)cc1 [Compound 6d] |  |  |  |  | 4 | >16 | >16 | >16 | 16 |  |  |  | 
Cc1ccc(-c2cc(CN3CCSCC3)c(C)n2-c2ccc(F)cc2)cc1 [Compound 6e, N-(p-fluorophenyl)-2-methyl-3-thiomorpholinomethyl-5-(p-methylphenyl)pyrrole] | 8 (≈ 21 µM) | 8 (≈ 21 µM) | 16 (≈ 42 µM) | 0.4 (≈ 1.05 µM) | 64 |  |  |  |  | 3 (≈ 7.88 µM) |  |  | 
Cc1ccc(-c2cc(CN3CCN(C)CC3)c(C)n2-c2ccc(F)cc2)cc1 [Compound 6f] |  |  |  |  | 8 | 4 (≈ 10.6 µM) | >16 | 8 (≈ 21.2 µM) | 4 |  |  |  | 
Cc1c(CN2CCSCC2)cc(-c2ccc(Cl)cc2Cl)n1-c1ccc(F)cc1 [Compound 6g] |  |  |  |  | 64 | 4 (≈ 9.19 µM) | >16 | >16 | 2 |  |  |  | 
Cc1c(CN2CCN(C)CC2)cc(-c2ccc(Cl)cc2Cl)n1-c1ccc(F)cc1 [Compound 6h] |  |  |  |  | 16 | 2 (≈ 4.63 µM) | >16 | >16 | 8 |  |  |  | 
Cc1c(CN2CCSCC2)cc(-c2ccc(F)cc2F)n1-c1ccc(F)cc1 [Compound 6i] |  |  |  |  | 16 | 16 (≈ 39.8 µM) | 16 (≈ 39.8 µM) | >16 | 0.5 |  |  |  | 
Cc1c(CN2CCN(C)CC2)cc(-c2ccc(F)cc2F)n1-c1ccc(F)cc1 [Compound 6j] |  |  |  |  | 8 | 16 (≈ 40.1 µM) | >16 | >16 | 4 |  |  |  | 
Cc1c(CN2CCSCC2)cc(-c2cccc3ccccc23)n1-c1ccc(F)cc1 [Compound 6k] |  |  |  |  | >128 | >16 | >16 | >16 | >16 |  |  |  | 
Cc1c(CN2CCN(C)CC2)cc(-c2cccc3ccccc23)n1-c1ccc(F)cc1 [Compound 6l] |  |  |  |  | 4 | 8 (≈ 19.3 µM) | 16 (≈ 38.7 µM) | >16 | 16 |  |  |  | 
Cc1c(CN2CCSCC2)cc(-c2ccc(F)cc2)n1-c1ccccc1Cl [Compound 7a] |  |  |  |  | 8 | >16 | >16 | >16 | 2 |  |  |  | 
Cc1c(CN2CCN(C)CC2)cc(-c2ccc(F)cc2)n1-c1ccccc1Cl [Compound 7b] |  |  |  |  | 8 | >16 | >16 | >16 | 4 |  |  |  | 
Cc1c(CN2CCSCC2)cc(-c2ccc(F)cc2)n1-c1ccccc1F [Compound 7c, N-(o-fluorophenyl)-2-methyl-3-thiomorpholinomethyl-5-(p-fluorophenyl)pyrrole] | 8 (≈ 20.8 µM) | > 16 | 8 (≈ 20.8 µM) | 0.5 (≈ 1.3 µM) | 8 |  |  |  |  | 3 (≈ 7.8 µM) |  |  | 
Cc1c(CN2CCN(C)CC2)cc(-c2ccc(F)cc2)n1-c1ccccc1F [Compound 7d] |  |  |  |  | 8 | 16 (≈ 41.9 µM) | >16 | 0.3 (≈ 0.786 µM) | 8 |  |  |  | 
Cc1ccc(-n2c(-c3ccc(F)cc3)cc(CN3CCSCC3)c2C)cc1 [Compound 7e] |  |  |  |  | 8 | 8 (≈ 21 µM) | 8 (≈ 21 µM) | 16 (≈ 42 µM) | 4 |  |  |  | 
Cc1ccc(-n2c(-c3ccc(F)cc3)cc(CN3CCN(C)CC3)c2C)cc1 [Compound 7f] |  |  |  |  | 8 | 16 (≈ 42.4 µM) | 8 (≈ 21.2 µM) | >16 | 16 |  |  |  | 
Cc1c(CN2CCSCC2)cc(-c2ccc(F)cc2)n1-c1ccc(Cl)cc1Cl [Compound 7g] |  |  |  |  | 4 | 2 (≈ 4.59 µM) | 8 (≈ 18.4 µM) | 16 (≈ 36.7 µM) | 1 |  |  |  | 
Cc1c(CN2CCN(C)CC2)cc(-c2ccc(F)cc2)n1-c1ccc(Cl)cc1Cl [Compound 7h] |  |  |  |  | 2 | 4 (≈ 9.25 µM) | 8 (≈ 18.5 µM) | >16 | 4 |  |  |  | 
Cc1c(CN2CCSCC2)cc(-c2ccc(F)cc2)n1-c1ccc(F)cc1F [Compound 7i] |  |  |  |  | 16 | 16 (≈ 39.8 µM) | 16 (≈ 39.8 µM) | >16 | 2 |  |  |  | 
Cc1c(CN2CCN(C)CC2)cc(-c2ccc(F)cc2)n1-c1ccc(F)cc1F [Compound 7j] |  |  |  |  | 16 | 16 (≈ 40.1 µM) | 16 (≈ 40.1 µM) | >16 | 16 |  |  |  | 
Cc1c(CN2CCSCC2)cc(-c2ccc(F)cc2)n1-c1cccc2ccccc12 [Compound 7k] |  |  |  |  | 2 | 8 (≈ 19.2 µM) | 16 (≈ 38.4 µM) | >16 | 4 |  |  |  | 
Cc1c(CN2CCN(C)CC2)cc(-c2ccc(F)cc2)n1-c1cccc2ccccc12 [Compound 7l] |  |  |  |  | 4 | 8 (≈ 19.3 µM) | 8 (≈ 19.3 µM) | >16 | 4 |  |  |  | 
NNC(=O)c1ccncc1 [Isoniazid, reference compound] |  |  |  | 0.25 (≈ 1.82 µM) | 32 |  |  |  |  |  | 32 (≈ 233 µM) | 16 (≈ 117 µM) | 64 (≈ 467 µM)
CO[C@H]1/C=C/O[C@@]2(C)Oc3c(C)c(O)c4c(O)c(c(/C=N/N5CCN(C)CC5)c(O)c4c3C2=O)NC(=O)/C(C)=C\C=C\[C@H](C)[C@H](O)[C@@H](C)[C@@H](O)[C@@H](C)[C@H](OC(C)=O)[C@@H]1C [Rifampin, reference compound] | 0.3 (≈ 0.365 µM) | 0.6 (≈ 0.729 µM) | 32 (≈ 38.9 µM) | 0.3 (≈ 0.365 µM) | 64 |  |  |  | 0.3 | 3 (≈ 3.65 µM) |  |  | 
[H]/N=C(/N)N[C@H]1[C@H](O)[C@@H](O)[C@H](O[C@@H]2O[C@@H](C)[C@](O)(C=O)[C@H]2O[C@@H]2O[C@@H](CO)[C@H](O)[C@@H](O)[C@@H]2NC)[C@@H](N/C(N)=N\[H])[C@@H]1O [Streptomycin, reference compound] | 8 (≈ 13.8 µM) | 32 (≈ 55 µM) | 8 (≈ 13.8 µM) | 0.5 (≈ 0.86 µM) | >64 |  |  |  |  |  |  |  | 
